Our source for the IC50 values is US20240307409A1, “ARGININE METHYLTRANSFERASE INHIBITOR AND USE THEREOF” (Cytosinlab Therapeutics Co., Ltd., priority 2021, published 2024).

One assay has as its system Toledo cells. Put plainly: Toledo cell proliferation inhibition assay. Format: cell-based. The settings on record: Homo sapiens, Toledo, 144 h; six-day assay, CellTiter-Glo. Put shortly: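 Toledo cells seeded at 2000 cells/well in RPMI 1640 + 10% FBS and incubated with compound for six days at 37° C, 5% CO2. Viability was then read by CellTiter-Glo luminescence after 30 min orbital mixing.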

The next assay has as its target PRMT1 (Homo sapiens, UniProt Q99873). The assay is described as follows: PRMT1 enzyme activity test. Format: biochemical. The settings on record: 0.5 nM PRMT1, 3H-SAM, peptide. Put shortly:
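Radiometric methylation assay: 0.5 nM PRMT1 preincubated 15 min at room temperature with compound (10-point 3-fold series, 1% DMSO) in pH 8.0 Tris buffer with Tween-20 and DTT. 0.25 uM ³H-SAM and 0.1 uM biotinylated peptide then reacted 120 min. Product captured on streptavidin FlashPlate and counted; IC50 from four-parameter fit of % inhibition.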

PRMT1, sequence (Q99873 whole entry): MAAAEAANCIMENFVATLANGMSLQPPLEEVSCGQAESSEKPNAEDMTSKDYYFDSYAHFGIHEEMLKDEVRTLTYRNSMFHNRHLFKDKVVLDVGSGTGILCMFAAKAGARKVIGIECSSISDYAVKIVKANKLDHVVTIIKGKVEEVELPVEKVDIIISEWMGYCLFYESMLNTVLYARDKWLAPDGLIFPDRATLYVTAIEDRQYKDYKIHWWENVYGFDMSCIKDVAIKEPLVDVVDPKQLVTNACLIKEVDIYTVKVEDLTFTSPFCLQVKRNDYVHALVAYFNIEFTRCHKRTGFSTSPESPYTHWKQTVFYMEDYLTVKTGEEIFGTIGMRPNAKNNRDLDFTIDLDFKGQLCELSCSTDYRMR

For `CNCCN(C)Cc1ncccc1C1CCN(c2cccc(OC)c2)CC1` [P169], the IC50 in the assay on Toledo cells was under 1000 nM; against PRMT1, under 50 nM.
For `CNCCN(C)Cc1ccc(F)cc1C1CCN(c2nccc(N3CCCC3)n2)CC1` [P172] the same measures were under 1000 nM and under 50 nM.
`CCOC[C@H]1CC[C@H](c2cccnc2CN(C)CCNC)CC1` [P173]: the IC50 was under 1000 nM in the assay on Toledo cells and under 50 nM against PRMT1.
For `CCOC[C@H]1CC[C@@H](c2cccnc2CN(C)CCNC)CC1` [P174] the same measures were 1000 to 5000 nM and under 50 nM.
As for `CNCCN(C)Cc1ccc2[nH]c(C)nc2c1C1CCN(c2cccc(C)c2)CC1` [P176], the IC50 with Toledo cells was under 1000 nM; against PRMT1, under 50 nM.
For `CNCCN(C)Cc1ncccc1N1CCCCC1` [P177] the same measures were 1000 to 5000 nM and under 50 nM.
Take `CNCCN(C)Cc1ncccc1N1CCC(Oc2ccc(F)cc2)CC1` [P178]: the IC50 is under 1000 nM in the assay on Toledo cells and under 50 nM against PRMT1.
For `CNCCN(C)Cc1ccc2c(c1C1CCN(c3cccc(C)c3)CC1)CC(=O)N2` [P180] the same measures were under 1000 nM and under 50 nM.
For `CCOCC1(CC)CCN(c2cccnc2CN(C)CCNC)CC1` [P182] the same measures were under 1000 nM and under 50 nM.
The like results for `CNCCN(C)Cc1cc(F)c2[nH]ncc2c1C1CCN(c2cccc(C)c2)CC1` [P183] were, in that order, under 1000 nM and under 50 nM.
Take `CNCCN(C)Cc1ccc(C)nc1C1CCN(c2ccc(C#N)cc2)CC1` [P188]: the IC50 with Toledo cells was 1000 to 5000 nM; at PRMT1, under 50 nM.
The like results for `CNCCN(C)Cc1ccc2[nH]cnc2c1C1CCN(c2cccc(C)c2)CC1` [P189] were, in that order, under 1000 nM and under 50 nM.
Regarding `CNCCN(C)Cc1ccc2[nH]ncc2c1C1CCN(c2cccc(C)c2)CC1` [P190, N^1,N^2-dimethyl-N^1-((4-(1-(m-tolyl)piperidin-4-yl)-1H-indazol-5-yl)methyl)ethane-1,2-dia mine], the IC50 was under 1000 nM in the assay on Toledo cells and under 50 nM against PRMT1.
As to `CNCCN(C)Cc1ncccc1C1CCN(c2ccc(C(=O)N(C)C)cc2)CC1` [P192], the IC50 in the assay on Toledo cells was at least 5000 nM; at PRMT1, under 50 nM.
The like results for `CNCCN(C)Cc1ncccc1C1CCN(c2ccnc(C)c2)CC1` [P193] were, in that order, 1000 to 5000 nM and under 50 nM.
The like results for `CNCCN(C)Cc1ncccc1N1CCC(Nc2ccccc2)CC1` [P194] were, in that order, 1000 to 5000 nM and under 50 nM.
For `CNCCN(C)Cc1ccc(CC(N)=O)cc1C1CCN(c2cccc(C)c2)CC1` [P195] the same measures were under 1000 nM and under 50 nM.
In the case of `CCOCC1(COCC)CCC(c2cc(F)cnc2CN(C)CCNC)CC1` [P196], the IC50 with Toledo cells was under 1000 nM; at PRMT1, under 50 nM.
As to `CNCCN(C)Cc1ncccc1N1CCCC1` [P197], the IC50 is at least 5000 nM in the assay with Toledo cells and at least 500 nM against PRMT1.
As to `CNCCN(C)Cc1ncccc1C1CCN(c2ccccc2C#N)CC1` [P201], the IC50 in the assay with Toledo cells is under 1000 nM; against PRMT1, under 50 nM.
For `CNCCN(C)Cc1ncccc1C1CCN(C(=O)c2ccccc2)CC1` [P203] the same measures were at least 5000 nM and 50 to 500 nM.
For `CCOCC1(COCC)CCC(c2ccncc2CN(C)CCNC)CC1` [P205] the same measures were 1000 to 5000 nM and 50 to 500 nM.
For the compound `CNCCN(C)Cc1ncccc1C1CCN(c2cccnc2)CC1` [P214], the IC50 with Toledo cells was 1000 to 5000 nM; against PRMT1, under 50 nM.
For the compound `CNCCN(C)Cc1ncccc1C1CCN(c2ccncc2)CC1` [P215], the IC50 with Toledo cells is 1000 to 5000 nM; on PRMT1 it was under 50 nM.
`CNCCN(C)Cc1ncccc1C1CCN(c2ccccn2)CC1` [P216]: the values for the IC50 with Toledo cells and at PRMT1 were 1000 to 5000 nM and under 50 nM, respectively.
For `CCOCC1CCCN(c2cccnc2CN(C)CCNC)C1` (stereo not drawn) [P217] the same measures were 1000 to 5000 nM and 50 to 500 nM.
For `CCOCC1CCN(c2cccnc2CN(C)CCNC)CC1` [P218] the same measures were 1000 to 5000 nM and under 50 nM.
For `CNCCN(C)Cc1ccc(C(N)=O)cc1C1CCN(c2cccc(C)c2)CC1` [P221] the same measures were under 1000 nM and under 50 nM.
Consider `CCN1CC2(CCC(c3cccnc3CN(C)CCNC)CC2)CC1=O` (stereo not drawn) [P222], for which the figures for the IC50 in the assay with Toledo cells and on PRMT1 were at least 5000 nM and under 50 nM, respectively.
The like results for `CNCCN(C)Cc1ncccc1N1CCC(OC(C)C)CC1` [P224] were, in that order, 1000 to 5000 nM and under 50 nM.
`CNCCN(C)Cc1nc(N)ccc1C1CCN(c2cccc(C)c2)CC1` [P227]: the IC50 with Toledo cells is under 1000 nM; against PRMT1 it was under 50 nM.
For `CNCCN(C)Cc1ccc2[nH]ncc2c1N1CCc2ccccc2CC1` [P228] the same measures were under 1000 nM and under 50 nM.
The like results for `CNCCN(C)Cc1ncccc1N1CCC(Oc2ccccc2OC(F)(F)F)CC1` [P230] were, in that order, under 1000 nM and under 50 nM.
For `CNCCN(C)Cc1ncccc1N1CCCC(OC)CC1` (stereo not drawn) [P233] the same measures were at least 5000 nM and under 50 nM.
With `CNCCN(C)Cc1ncccc1C1CCN(c2ccc3c(c2)OC(C)(C)O3)CC1` [P234], the IC50 with Toledo cells lay within 1000 to 5000 nM; on PRMT1, 50 to 500 nM.
The like results for `CNCCN(C)Cc1ncccc1N1CCC(Oc2cccc(OC)c2)CC1` [P238] were, in that order, under 1000 nM and under 50 nM.
On to `CNCCN(C)Cc1ncccc1C1CCN(c2nc(C)nc3ccccc23)CC1` [P239], for which the IC50 is 1000 to 5000 nM in the assay with Toledo cells and under 50 nM on PRMT1.
For `CNCCN(C)Cc1ncccc1C1CCN(c2nc(C)cc(N3CCCC3)n2)CC1` [P242] the same measures were under 1000 nM and under 50 nM.
Consider `CCOCC1(COCC)CCN(c2cccnc2CN(C)CCNC)C1` [P248], for which the IC50 in the assay with Toledo cells was 1000 to 5000 nM; against PRMT1, 50 to 500 nM.
As for `CNCCN(C)Cc1ncccc1C1CCN(c2cccc(C(=O)NC)c2)CC1` [P254], the IC50 in the assay with Toledo cells was at least 5000 nM; on PRMT1, 50 to 500 nM.
For `CNCCN(C)Cc1ncccc1C1CCN(c2ccc(C(=O)NC)cc2)CC1` [P255] the same measures were 1000 to 5000 nM and under 50 nM.
For `CNCCN(C)Cc1ncccc1N1CCC(Oc2ccc(-n3ccnc3)cc2)CC1` [P259] the same measures were 1000 to 5000 nM and under 50 nM.
The like results for `CNCCN(C)Cc1ncccc1N1CCCOCC1` [P260] were, in that order, 1000 to 5000 nM and under 50 nM.
As to `CNCCN(C)Cc1ncccc1C1CCN(c2cc(C)nc(C)n2)CC1` [P262], the IC50 in the assay on Toledo cells was 1000 to 5000 nM; against PRMT1 it was under 50 nM.
For the compound `CNCCN(C)Cc1ncccc1N1CCC(NC2CCOCC2)CC1` [P263], the figures for the IC50 with Toledo cells and against PRMT1 were at least 5000 nM and at least 500 nM, respectively.
The like results for `CCOCC1(COCC)CCC(c2c(CN(C)CCNC)ccc3[nH]ncc23)CC1` [P266, N1-((4-(4,4-bis(ethoxymethyl)cyclohexyl)-1H-indazol-5-yl)methyl)-N1,N2-dimethylethane-1,2-diamine] were, in that order, under 1000 nM and under 50 nM.
In the case of `CNCCN(C)Cc1ncccc1N1CCC(Oc2ccncc2)CC1` [P267], the values for the concentration for half-maximal inhibition (IC50) in the assay with Toledo cells and on PRMT1 were 1000 to 5000 nM and under 50 nM, respectively.
On to `CNCCN(C)Cc1ncccc1N1CCC(Oc2ccccn2)CC1` [P268], for which the figures for the 50% inhibitory concentration (IC50) in the assay with Toledo cells and on PRMT1 were 1000 to 5000 nM and under 50 nM, respectively.
